According to publication PMC7315563, “Bioactive fluorenes. Part III: 2,7-dichloro-9H-fluorene-based thiazolidinone and azetidinone analogues as anticancer and antimicrobial against multidrug resistant strains agents” (BMC Chemistry, 2020):
In brackets after ≈: the same amount, converted by molar mass.

Legend:
E. coli = assay: MIC by broth microdilution method (resazurin end point); type: cell-based; settings: Escherichia coli, 24 h at 37 °C
Description: (§1) Determination of Minimum inhibitory concentrations (MIC) of flourene derivatives was done using broth microdilution method. The procedure involved preparation of twofold dilutions of the fluorene derivatives ranging from (500–7.8 μg/mL) in sterile Mueller–Hinton broth inside the wells of 96-well microplate (Sarstedt, Germany). The inoculums of test strains prepared from fresh overnight cultures were adjusted to 0.5 McFarland standards, which equals to 1–2 × 10^8 CFU/mL for bacteria, the procedure was done according to CLSI 2012 [42]. […] For this assay the positive control agents were vancomycin (range: 0.7–50 μg/mL), gentamicin (range: 0.15–10 μg/mL) and the negative control was 1% DMSO.
(§2) For proper determination of the MIC end point resazurin dye has been used. A stock solution of resazurin sodium salt powder (Titan Biotech) was prepared at 0.02% (wt/vol) in distilled water, sterilized by filtration through a […] filter into a sterile light protected container then stored protected from light at 4 °C for up to 1 week, or at − […] for long term use, then 10–15% resazurin solution of the total volume in wells was added to each well and incubation for 1–4 h at 37 °C was done. A change in color from blue to pink indicates the growth of bacteria, and MIC was defined as the lowest concentration of the drug that prevented this change in color.

P. aeruginosa = assay: as above; type: cell-based; settings: Pseudomonas aeruginosa, 24 h at 37 °C
Description: as §1, §2

[1] = tested on: MDA-MB-231 human breast cancer cells; assay: cell viability assay (MTT); type: cell-based; settings: 24 h; for viability at 1 µg/mL: read-out: Validity (%) for sample concentrations (µg/mL) 1; for viability at 10 µg/mL: read-out: Validity (%) for sample concentrations (µg/mL) 10; for viability at 31.25 µg/mL: read-out: Validity (%) for sample concentrations (µg/mL) 31.25; for viability at 62.5 µg/mL: read-out: Validity (%) for sample concentrations (µg/mL) 62.5; for viability at 125 µg/mL: read-out: Validity (%) for sample concentrations (µg/mL) 125; for viability at 250 µg/mL: read-out: Validity (%) for sample concentrations (µg/mL) 250; for viability at 500 µg/mL: read-out: Validity (%) for sample concentrations (µg/mL) 500
Procedure, shortened: (§3)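 Seeding at 5000 cells/well in RPMI-1640 plus 10% inactivated FBS; treatment the following day with compound in fresh medium over 0–500 µg/mL; 24 h incubation; MTT viability with absorbance taken at […].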

[2] = tested on: WI-38 human normal fibroblast cells; assay: cell viability assay (MTT); type: cell-based; settings: 24 h; for viability at 31.25 µg/mL: read-out: Validity (%) for sample concentrations (µg/mL) 31.25; for viability at 62.5 µg/mL: 62.50 µg/mL, read-out: Validity (%) for sample concentrations (µg/mL) 62.50; for viability at 125 µg/mL: read-out: Validity (%) for sample concentrations (µg/mL) 125; for viability at 250 µg/mL: read-out: Validity (%) for sample concentrations (µg/mL) 250; for viability at 500 µg/mL: read-out: Validity (%) for sample concentrations (µg/mL) 500
Procedure, shortened: as §3

[3] = tested on: Staphylococcus aureus (S. aureus), multidrug resistant clinical isolate; assay: agar well diffusion assay; type: cell-based; settings: Staphylococcus aureus; S. aureus; 500 µg/mL of tested compound; 24 h
Procedure, shortened: (§4)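 Multidrug-resistant clinical isolates swabbed on Mueller–Hinton agar at about 1–5 × 10^5 CFU/mL; 0.5 cm wells received 50 μL compound at 500 μg/mL in 1% DMSO. Incubation 24 h, 37 °C for bacteria and C. albicans, 25 °C for Aspergillus; inhibition zone diameter measured in mm.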

[4] = tested on: Pseudomonas aeruginosa (P. aeruginosa), multidrug resistant clinical isolate; assay: agar well diffusion assay; type: cell-based; settings: 24 h, 500 µg/mL of tested compound
Procedure, shortened: as §4

[5] = tested on: Acinetobacter baumannii (A. baumannii), multidrug resistant clinical isolate; assay: agar well diffusion assay; type: cell-based; settings: 500 µg/mL of tested compound, 24 h
Procedure, shortened: as §4

[6] = tested on: Escherichia coli (E. coli), multidrug resistant clinical isolate; assay: agar well diffusion assay; type: cell-based; settings: 24 h, 500 µg/mL of tested compound
Procedure, shortened: as §4

[7] = tested on: Klebsiella pneumoniae (K. pneumoniae), multidrug resistant clinical isolate; assay: agar well diffusion assay; type: cell-based; settings: 24 h, 500 µg/mL of tested compound
Procedure, shortened: as §4

[8] = tested on: A549 human lung cancer cells; assay: cell viability assay (MTT); type: cell-based; settings: 24 h; for viability at 1 µg/mL: read-out: Validity (%) for sample concentrations (µg/mL) 1; for viability at 10 µg/mL: read-out: Validity (%) for sample concentrations (µg/mL) 10; for viability at 31.25 µg/mL: read-out: Validity (%) for sample concentrations (µg/mL) 31.25; for viability at 62.5 µg/mL: 62.50 µg/mL, read-out: Validity (%) for sample concentrations (µg/mL) 62.50; for viability at 125 µg/mL: read-out: Validity (%) for sample concentrations (µg/mL) 125; for viability at 250 µg/mL: read-out: Validity (%) for sample concentrations (µg/mL) 250; for viability at 500 µg/mL: read-out: Validity (%) for sample concentrations (µg/mL) 500; for viability at 1000 µg/mL: read-out: Validity (%) for sample concentrations (µg/mL) 1000

SMILES | viability at 1 µg/mL [1] [%] | viability at 10 µg/mL [1] [%] | viability at 31.25 µg/mL [1] [%] | viability at 62.5 µg/mL [1] [%] | viability at 125 µg/mL [1] [%] | viability at 250 µg/mL [1] [%] | viability at 500 µg/mL [1] [%] | IC50 [1] [µg/mL] | viability at 31.25 µg/mL [2] [%] | viability at 62.5 µg/mL [2] [%] | viability at 125 µg/mL [2] [%] | viability at 250 µg/mL [2] [%] | viability at 500 µg/mL [2] [%] | IC50 [2] [µg/mL] | zone of inhibition at 500 µg/mL [3] [mm] | zone of inhibition at 500 µg/mL [5] [mm] | melting point [°C] | viability at 1 µg/mL [8] [%] | viability at 10 µg/mL [8] [%] | viability at 31.25 µg/mL [8] [%] | further results
O=C1C(Cl)C(c2ccnc3ccccc23)N1c1nc(-c2cc(Cl)cc3c2-c2ccc(Cl)cc2C3)cs1 (stereo not shown) [6n, 3-chloro-1-(4-(2,7-dichloro-9H-fluoren-4-yl)thiazol-2-yl)-4-(quinolin-4-yl)azetidin-2-one] | 96.2 | 89.5 | 86.8 | 81.3 | 73.2 | 67.1 | 59.2 | > 500 | 98.6 | 85.9 | 53.2 | 43.3 | 39.8 | 212 (≈ 386 µM) | 9 | 5 | 175 to 177 | 93.3 | 83.6 | 67.9 | MIC (E. coli): 31.2 µg/mL (≈ 56.9 µM); MIC (P. aeruginosa): 62.5 µg/mL (≈ 114 µM); zone of inhibition at 500 µg/mL [4]: 13 mm; zone of inhibition at 500 µg/mL [6]: 19 mm; zone of inhibition at 500 µg/mL [7]: 5 mm; viability at 62.5 µg/mL [8]: 64.2%; viability at 125 µg/mL [8]: 52.7%; viability at 250 µg/mL [8]: 43.2%; viability at 500 µg/mL [8]: 39.1%; viability at 1000 µg/mL [8]: 36.3%; IC50 [8]: 159 µg/mL (≈ 290 µM)
O=C1C(Cl)C(c2ccc([N+](=O)[O-])cc2)N1c1nc(-c2cc(Cl)cc3c2-c2ccc(Cl)cc2C3)cs1 (stereo not shown) [6f, 3-Chloro-1-(4-(2,7-dichloro-9H-fluoren-4-yl)thiazol-2-yl)-4-(4-nitrophenyl)azetidin-2-one] | 91.8 | 89.6 | 83 | 72.4 | 59.7 | 37.2 | 28.9 | 188 (≈ 346 µM) | 49 | 44.8 | 35.6 | 32.3 | 30.4 | 29 (≈ 53.4 µM) | 10 | 5 | 114 to 116 | 91.3 | 89.8 | 86.2 | viability at 62.5 µg/mL [8]: 83.2%; viability at 125 µg/mL [8]: 67.3%; viability at 250 µg/mL [8]: 46.6%; viability at 500 µg/mL [8]: 38.6%; viability at 1000 µg/mL [8]: 25.4%; IC50 [8]: 230 µg/mL (≈ 424 µM)
O=C1C(Cl)C(c2ccco2)N1c1nc(-c2cc(Cl)cc3c2-c2ccc(Cl)cc2C3)cs1 (stereo not shown) [6j, 3-Chloro-1-(4-(2,7-dichloro-9H-fluoren-4-yl)thiazol-2-yl)-4-(furan-2-yl)azetidin-2-one] | 96.3 | 92.9 | 75.6 | 73.1 | 69 | 53.2 | 50.6 | 508 (≈ 1040 µM) | 87.3 | 81.4 | 66.3 | 60.9 | 37.2 | 356 (≈ 730 µM) | 9 | 6 | 95 to 98 | 95.6 | 87.8 | 76.6 | MIC (E. coli): 31.2 µg/mL (≈ 64.1 µM); zone of inhibition at 500 µg/mL [6]: 20 mm; viability at 62.5 µg/mL [8]: 68.2%; viability at 125 µg/mL [8]: 54%; viability at 250 µg/mL [8]: 31.3%; viability at 500 µg/mL [8]: 29.2%; viability at 1000 µg/mL [8]: 28.3%; IC50 [8]: 175 µg/mL (≈ 359 µM)
